Measured values published in patent US8466155B2, “Pyrimidines” (Boehringer Ingelheim International GmbH, priority 2009, dated 2013).

Molecular target: T1, PTK2 (Homo sapiens, UniProt Q05397)
T1 construct: purchased Invitrogen PV3832
Assay: PTK2 enzyme test, Assay 1 (DELFIA, PT60 antibody)
Type: biochemical
Conditions: 1 h pre-incubation, 1 h kinase reaction, values without *
Protocol: This test uses active PTK2 enzyme (Invitrogen Code PV3832) and poly-Glu-Tyr (4:1, Sigma P-0275) as the kinase substrate. The kinase activity is detected through the phosphorylation of the substrate in a DELFIA™ assay. The phosphorylated substrate is detected with the europium-labelled phosphotyrosine antibody PT60 (Perkin Elmer, No.: AD00400).
In order to determine concentration-activity curves with PTK2-inhibitors the compounds are serially diluted in 10% DMSO/H20 and 10 μL of each dilution are placed in each well of a 96-well microtitre plate (clear plate with a U-shaped base, Greiner No. 650101) (the inhibitors are tested in duplicates) and mixed with 10 μL/well of PTK2 kinase (0.01 μg/well). PTK2 kinase has been correspondingly diluted beforehand with kinase dilution buffer (20 mM TRIS/HCl pH 7.5, 0.1 mM EDTA, 0.1 mM EGTA, 0.286 mM sodium orthovanadate, 10% glycerol with the addition of freshly prepared BSA (fraction V, 1 mg/mL) and DTT (1 mM)). The test compound and the PTK2 kinase are pre-incubated for 1 h at RT and shaken at 500 revolutions per min. The reaction is started by the addition of 10 μL/well poly (Glu,Tyr) substrate (25 μg/well poly (Glu, Tyr), 0.05 μg/well biotinylated poly (Glu,Tyr) dissolved in 250 mM TRIS/HCl pH 7.5, 9 mM DTT)—the final concentration of DMSO is 2%. Then 20 μL of ATP Mix (30 mM TRIS/HCl pH 7.5, 0.02% Brij, 0.2 mM sodium orthovanadate, 10 mM magnesium acetate, 0.1 mM EGTA, 1× phosphatase inhibitor cocktail 1 (Sigma, No.: P2850), 50 μM ATP (Sigma, No.: A3377; 15 mM stock solution)) are added. After 1 h of kinase reaction (the plates are shaken at 500 rpm), the reaction is stopped by the addition of 12 μL/well 100 mM EDTA, pH 8.0 and shaken for a further 5 min at RT (500 rpm). 55 μL of the reaction mixture are transferred into a streptavidin plate (Strepta Well High Bind (transparent, 96-well) made by Roche, No.: 11989685001) and incubated for 1 h at RT (shaking at 500 rpm). Then the microtitre plate is washed three times with 200 μL/well D-PBS (Invitrogen, No. 14190). 100 μL of a solution containing DELFIA Eu-N1 Anti-Phosphotyrosine PT60 antibody (Perkin Elmer, No.: AD0040, diluted 1:2000 in DELFIA test buffer (Perkin Elmer, No.: 1244-111)) is then added and the mixture is incubated for 1 h at RT (shaking at 500 rpm). Then the plate is washed three times with 200 μL/well DELFIA washing buffer (Perkin Elmer, No.: 1244-114), 200 μL/well strengthening solution (Perkin Elmer, No.: 1244-105) are added and the mixture is incubated for 10 min at RT (shaking at 300 rpm).
The time-delayed europium fluorescence is then measured in a microtitre plate reader (VICTOR^3, Perkin Elmer). […] Wells that contain test buffer instead of enzyme are used as a control of the background kinase activity.
The IC50 values are determined from analyses of the concentration activity by iterative calculation with the aid of a sigmoid curve analysis algorithm (FIFTY, based on GraphPAD Prism Version 3.03) with a variable Hill coefficient.

T1 sequence (Q05397 whole entry): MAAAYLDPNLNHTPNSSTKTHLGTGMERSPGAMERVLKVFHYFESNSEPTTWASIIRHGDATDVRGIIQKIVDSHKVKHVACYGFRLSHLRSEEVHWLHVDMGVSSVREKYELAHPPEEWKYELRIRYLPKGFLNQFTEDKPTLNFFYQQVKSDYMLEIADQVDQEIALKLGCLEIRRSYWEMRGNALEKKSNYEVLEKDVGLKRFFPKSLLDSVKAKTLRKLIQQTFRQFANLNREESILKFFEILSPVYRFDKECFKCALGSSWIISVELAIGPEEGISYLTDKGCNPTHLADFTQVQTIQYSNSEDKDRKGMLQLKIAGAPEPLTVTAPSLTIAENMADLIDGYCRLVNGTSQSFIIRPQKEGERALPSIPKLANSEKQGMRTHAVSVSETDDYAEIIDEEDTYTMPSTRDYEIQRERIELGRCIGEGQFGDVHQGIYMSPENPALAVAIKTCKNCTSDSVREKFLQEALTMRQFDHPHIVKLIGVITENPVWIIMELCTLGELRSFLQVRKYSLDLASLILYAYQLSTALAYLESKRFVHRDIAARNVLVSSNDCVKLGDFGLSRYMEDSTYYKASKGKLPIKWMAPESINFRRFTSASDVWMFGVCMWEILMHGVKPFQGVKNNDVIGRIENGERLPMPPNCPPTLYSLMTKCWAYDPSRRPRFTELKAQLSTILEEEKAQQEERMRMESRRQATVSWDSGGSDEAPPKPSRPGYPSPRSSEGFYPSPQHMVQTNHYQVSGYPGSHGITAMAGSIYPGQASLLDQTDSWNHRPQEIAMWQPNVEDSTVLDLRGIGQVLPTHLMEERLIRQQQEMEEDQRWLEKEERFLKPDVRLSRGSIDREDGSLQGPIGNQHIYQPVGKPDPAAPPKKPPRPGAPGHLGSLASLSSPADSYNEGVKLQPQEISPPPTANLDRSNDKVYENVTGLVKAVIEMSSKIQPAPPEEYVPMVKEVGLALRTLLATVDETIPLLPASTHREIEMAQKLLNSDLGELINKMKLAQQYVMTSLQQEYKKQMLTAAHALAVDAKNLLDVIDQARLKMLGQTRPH

IC50 [nM] | SMILES
0.31 | COc1ccc(C(=O)NCCN(C)C)cc1Nc1ncc(C(F)(F)F)c(O[C@@H]2Cc3ccccc3[C@H]2N(C)S(C)(=O)=O)n1 [Example 81]
19 | COc1cc(C(=O)NCC2CC2)c(F)cc1Nc1ncc(C(F)(F)F)c(O[C@@H]2Cc3ccccc3[C@H]2N(C)S(C)(=O)=O)n1 [Example 9]
3 | COc1cc(C(=O)NCCCN(C)C)c(F)cc1Nc1ncc(Cl)c(O[C@@H]2Cc3ccccc3[C@H]2N(C)S(C)(=O)=O)n1 [Example 60]
1 | Cc1nc2ccc(Nc3ncc(C(F)(F)F)c(O[C@@H]4CCC[C@H]4NS(C)(=O)=O)n3)cc2o1 [Example 83]
0.41 | COc1ccc(C(=O)NN2CCN(C)CC2)cc1Nc1ncc(C(F)(F)F)c(O[C@@H]2Cc3ccccc3[C@H]2N(C)S(C)(=O)=O)n1 [Example 80]
4 | COc1cc(C(=O)NCCCN(C)C)c(F)cc1Nc1ncc(C(F)(F)F)c(O[C@@H]2Cc3ccccc3[C@H]2N(C)S(C)(=O)=O)n1 [Example 8]
1 | COc1cc(C(=O)NCCN(C)C)c(F)cc1Nc1ncc(C(F)(F)F)c(O[C@@H]2CCCC[C@H]2NS(C)(=O)=O)n1 [Example 106]
0.31 | COc1cc(C(=O)NC2CCN(C)CC2)c(F)cc1Nc1ncc(C(F)(F)F)c(O[C@@H]2CCCC[C@H]2N(C)S(C)(=O)=O)n1 [Example 75, 2-fluoro-4-{4-[(1R,2R)-2-(methanesulphonyl-methyl-amino)-cyclohexyloxy]-5-trifluoromethyl-pyrimidin-2-ylamino}-5-methoxy-N-(1-methyl-piperidin-4-yl)-benzamide]
4 | COc1cc(C(=O)NCCN(C)C)c(F)cc1Nc1ncc(Cl)c(O[C@@H]2Cc3ccccc3[C@H]2N(C)S(C)(=O)=O)n1 [Example 53]
0.37 | COc1cc(C(=O)NC2CCN(C)CC2)c(F)cc1Nc1ncc(Cl)c(O[C@@H]2CCC[C@H]2N(C)S(C)(=O)=O)n1 [Example 85, 4-{5-chloro-4-[(1R,2R)-2-(methanesulphonyl-methyl-amino)-cyclopentyloxy]-pyrimidin-2-ylamino}-2-fluoro-5-methoxy-N-(1-methyl-piperidin-4-yl)-benzamide]
0.29 | COc1cc(C(=O)NC2CCN(C)CC2)ccc1Nc1ncc(C(F)(F)F)c(O[C@@H]2CCCC[C@H]2N(C)S(C)(=O)=O)n1 [Example 76]
4 | COc1cc(C(=O)NN2CCN(C)CC2)c(F)cc1Nc1ncc(C(F)(F)F)c(O[C@@H]2CCC[C@H]2NS(C)(=O)=O)n1 [Example 98]
22 | COc1cc(C(=O)NC2CCN(C)CC2)c(Cl)cc1Nc1ncc(C(F)(F)F)c(O[C@@H]2CCC[C@H]2NS(=O)(=O)C2CC2)n1 [Example 48]
3 | COc1cc(C(=O)NCCN(C)C)ccc1Nc1ncc(C(F)(F)F)c(O[C@@H]2Cc3ccccc3[C@H]2N(C)S(C)(=O)=O)n1 [Example 14]
8 | COc1cc(C(=O)N[C@H]2CC[C@H](O)CC2)ccc1Nc1ncc(C(F)(F)F)c(O[C@@H]2Cc3ccccc3[C@H]2N(C)S(C)(=O)=O)n1 [Example 22]
8 | COc1cc(C(=O)N[C@H]2CC[C@H](N3CCN(CC4CC4)CC3)CC2)c(F)cc1Nc1ncc(C(F)(F)F)c(O[C@@H]2Cc3ccccc3[C@H]2N(C)S(C)(=O)=O)n1 [Example 7]
3 | COc1cc(C(=O)NC2CCN(C)CC2)c(Cl)cc1Nc1ncc(Cl)c(O[C@@H]2Cc3ccccc3[C@H]2N(C)S(C)(=O)=O)n1 [Example 62]
5 | COc1cc(C(=O)NCCn2ccnc2C)c(F)cc1Nc1ncc(C(F)(F)F)c(O[C@@H]2Cc3ccccc3[C@H]2N(C)S(C)(=O)=O)n1 [Example 4]
16 | CNC(=O)c1cc(OC)c(Nc2ncc(Cl)c(O[C@@H]3Cc4ccccc4[C@H]3N(C)S(C)(=O)=O)n2)cc1F [Example 67]

IC50 [nM] | SMILES
174 | COc1cc(C(=O)NC2CCN(C)CC2)ccc1Nc1ncc(C(F)(F)F)c(O[C@@H]2Cc3ccccc3[C@@H]2NC(C)=O)n1 [Example 72]
238 | COc1cc(C(=O)NC2CCN(C)CC2)ccc1Nc1ncc(C(F)(F)F)c(O[C@H]2Cc3ccccc3[C@H]2N(C)S(C)(=O)=O)n1 [Example 70]
9 | COc1cc(C(=O)NC[C@H](O)CO)c(F)cc1Nc1ncc(Cl)c(O[C@@H]2Cc3ccccc3[C@H]2N(C)S(C)(=O)=O)n1 [Example 56]
4 | COc1cc(C(=O)NCC(O)CO)ccc1Nc1ncc(C(F)(F)F)c(O[C@@H]2Cc3ccccc3[C@H]2N(C)S(C)(=O)=O)n1 (some centres unmarked) [Example 12]
0.56 | COc1cc(C(=O)NCCN(C)C)ccc1Nc1ncc(C(F)(F)F)c(O[C@@H]2Cc3ccccc3[C@H]2NS(C)(=O)=O)n1 [Example 95]
0.45 | COc1cc(C(=O)NCCN(C)C)c(Cl)cc1Nc1ncc(C(F)(F)F)c(O[C@@H]2Cc3ccccc3[C@H]2NS(C)(=O)=O)n1 [Example 86]
2 | COc1cc(C(=O)NCCN2CCN(C)CC2)c(F)cc1Nc1ncc(Cl)c(O[C@@H]2Cc3ccccc3[C@H]2N(C)S(C)(=O)=O)n1 [Example 57]
4 | COc1cc(NC(=O)C2CCN(C)CC2)ccc1Nc1ncc(C(F)(F)F)c(O[C@@H]2Cc3ccccc3[C@H]2N(C)S(C)(=O)=O)n1 [Example 91]
6 | COc1cc(C(=O)NCC(C)(C)C)c(Cl)cc1Nc1ncc(Cl)c(O[C@@H]2Cc3ccccc3[C@H]2N(C)S(C)(=O)=O)n1 [Example 39]
6 | CCS(=O)(=O)N[C@@H]1CCC[C@H]1Oc1nc(Nc2cc(F)c(C(=O)NC3CCN(C)CC3)cc2OC)ncc1C(F)(F)F [Example 44]
6 | COc1cc(C(=O)N[C@H]2CC[C@H](N3CCN(CC4CC4)CC3)CC2)c(F)cc1Nc1ncc(Cl)c(O[C@@H]2Cc3ccccc3[C@H]2N(C)S(C)(=O)=O)n1 [Example 58]
4 | COc1cc(C(=O)NC[C@@H](O)CO)c(Cl)cc1Nc1ncc(Cl)c(O[C@@H]2Cc3ccccc3[C@H]2N(C)S(C)(=O)=O)n1 [Example 42]
1 | COc1cc(C(=O)NC2CCN(C)CC2)c(F)cc1Nc1ncc(C(F)(F)F)c(O[C@@H]2Cc3ccccc3[C@H]2NS(C)(=O)=O)n1 [Example 24, 2-fluoro-4-[4-((1R,2R)-1-methanesulphonylamino-indan-2-yloxy)-5-trifluoromethyl-pyrimidin-2-ylamino]-5-methoxy-N-(1-methyl-piperidin-4-yl)-benzamide]
0.42 | COc1cc(C(=O)NC2CCN(C)CC2)c(Cl)cc1Nc1ncc(C(F)(F)F)c(O[C@@H]2CCCC[C@H]2N(C)S(C)(=O)=O)n1 [Example 74, 2-chloro-4-{4-[(1R,2R)-2-(methanesulphonyl-methyl-amino)-cyclohexyloxy]-5-trifluoromethyl-pyrimidin-2-ylamino}-5-methoxy-N-(1-methyl-piperidin-4-yl)-benzamide]
0.39 | COc1cc(C(=O)NC2CCN(C)CC2)c(F)cc1Nc1ncc(C(F)(F)F)c(O[C@@H]2CCCC[C@H]2NS(C)(=O)=O)n1 [Example 105]
0.3 | COc1cc(C(=O)NN2CCN(C)CC2)ccc1Nc1ncc(C(F)(F)F)c(O[C@@H]2CCCC[C@H]2N(C)S(C)(=O)=O)n1 [Example 77, 4-{4-[(1R,2R)-2-(methanesulphonyl-methyl-amino)-cyclohexyloxy]-5-trifluoromethyl-pyrimidin-2-ylamino}-3-methoxy-N-(4-methyl-piperazin-1-yl)-benzamide]
0.3 | COc1cc(C(=O)NN2CCN(C)CC2)c(F)cc1Nc1ncc(C(F)(F)F)c(O[C@@H]2CCC[C@H]2N(C)S(C)(=O)=O)n1 [Example 101, 2-fluoro-4-{4-[(1R,2R)-2-(methanesulphonyl-methyl-amino)-cyclopentyloxy]-5-trifluoromethyl-pyrimidin-2-ylamino}-5-methoxy-N-(4-methyl-piperazin-1-yl)-benzamide]
6 | COc1cc(C(=O)NC[C@@H](O)CO)c(F)cc1Nc1ncc(C(F)(F)F)c(O[C@@H]2Cc3ccccc3[C@H]2N(C)S(C)(=O)=O)n1 [Example 64]
3 | COc1cc(C(=O)NC2CCN(C)CC2)c(Cl)cc1Nc1ncc(C(F)(F)F)c(O[C@@H]2CCC[C@H]2NS(=O)(=O)CCl)n1 [Example 47]
